Results: patent publication US6545032B1, “Synthesis of [3,5,7]-H-imidazo[1,5-a] imidazol-2(3H)-one compounds” (Torrey Pines Institute for Molecular Studies, priority 1999, dated 2003)

What was measured:
kappa opiate receptor = molecular target: T1, kappa opiate receptor (Cavia porcellus, UniProt P41144); assay: Inhibition of tritiated U69,593 binding to the kappa opiate receptor in guinea pig brain homogenates; design: Mean: unit not given beside the values; conditions: 3 nm tritiated U69,593, guinea pig brain membranes; for % Bound: [3H]U69,593 bound; for % Inhibition: inhibition of [3H]U69,593 binding; for Mean: mean bound radioactivity of [3H]U69,593, 2.5 hours 25° C.; for Minus NSB: mean minus non-specific binding
T1 construct: guinea pig cortices and cerebella were homogenized in 40 mL of Buffer A; from tissue; host or cells: guinea pig cortices and cerebella, crude membrane suspension
How it was run: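 Guinea pig cortex and cerebellum membranes in 50 mM Tris-HCl pH 7.4 incubated with 3 nM [³H]U69,593 for 2.5 h at 25 °C, then filtered and bound radioactivity counted. Unlabelled U50,488 served as competitor for standard curve and nonspecific binding.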

mu opiate receptor = molecular target: T2, mu opiate receptor (Rattus norvegicus, UniProt P33535); assay: Inhibition of [3H]DAMGO binding to the mu opiate receptor in rat brain homogenates; design: Mean: unit not given beside the values; conditions: 0.08 mg of compound per milliliter, 7 nM 3H-labeled DAMGO, rat brain membranes; for % Bound: [3H]DAMGO bound; for Mean: mean bound radioactivity of [3H]DAMGO; for Minus NSB*: mean minus non-specific binding; for % Inhibition: percent inhibition of DAMGO binding
T2 construct: from tissue; host or cells: rat brain membranes/homogenate
How it was run: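 Members of an imidazo-imidazolone compound library were tested for blocking binding of [^3H]DAMGO, a mu opiate receptor-specific ligand, to rat brain membranes. Each 0.65 mL tube held 0.08 mg of compound mixture per milliliter, 0.5 mL membrane suspension (0.1 mg of protein) and 7 nM ^3H-labeled DAMGO (36 Ci/mmol) in 50 mM Tris-HCl buffer (pH 7.4).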

T1 sequence (P41144 whole entry): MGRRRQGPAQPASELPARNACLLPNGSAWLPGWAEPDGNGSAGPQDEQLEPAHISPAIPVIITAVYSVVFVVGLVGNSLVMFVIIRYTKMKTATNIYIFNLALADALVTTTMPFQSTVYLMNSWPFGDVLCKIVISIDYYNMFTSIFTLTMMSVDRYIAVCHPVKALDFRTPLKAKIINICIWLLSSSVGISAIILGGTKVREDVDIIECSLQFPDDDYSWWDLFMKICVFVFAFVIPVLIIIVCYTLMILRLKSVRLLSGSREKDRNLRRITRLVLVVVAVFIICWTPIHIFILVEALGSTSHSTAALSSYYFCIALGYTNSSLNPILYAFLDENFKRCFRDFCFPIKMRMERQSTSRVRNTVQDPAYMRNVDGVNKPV
T2 sequence (P33535 whole entry): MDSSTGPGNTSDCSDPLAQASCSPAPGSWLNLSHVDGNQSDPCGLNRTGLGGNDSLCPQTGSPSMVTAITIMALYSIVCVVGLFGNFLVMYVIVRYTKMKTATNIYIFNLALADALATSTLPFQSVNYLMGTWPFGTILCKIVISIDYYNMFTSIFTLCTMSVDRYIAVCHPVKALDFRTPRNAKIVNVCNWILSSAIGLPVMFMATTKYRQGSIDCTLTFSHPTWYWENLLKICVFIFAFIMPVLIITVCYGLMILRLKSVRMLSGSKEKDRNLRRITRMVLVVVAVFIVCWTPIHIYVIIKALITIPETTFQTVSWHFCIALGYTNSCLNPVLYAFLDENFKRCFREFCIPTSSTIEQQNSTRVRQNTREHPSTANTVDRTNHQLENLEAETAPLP

CC(C)c1nc(Cc2ccc(Br)cc2)n2c1NC(=O)C2C(C)C (racemic) [Pool 77]
% Bound (kappa opiate receptor): 73.658%
% Inhibition (kappa opiate receptor): 26.342%
Mean (kappa opiate receptor): 1670.1
Minus NSB (kappa opiate receptor): 763.10
% Bound (mu opiate receptor): 39%
Mean (mu opiate receptor): 682.95
Minus NSB* (mu opiate receptor): 374.95
% Inhibition (mu opiate receptor): 61%

CCC(C)c1nc(C(C)C)c2n1C(C(C)C)C(=O)N2 (mixture of isomers) [Pool 124]
% Bound (kappa opiate receptor): 62.630%
% Inhibition (kappa opiate receptor): 37.370%
Mean (kappa opiate receptor): 1555.85
Minus NSB (kappa opiate receptor): 648.85
% Bound (mu opiate receptor): 62%
Mean (mu opiate receptor): 901.85
Minus NSB* (mu opiate receptor): 593.85
% Inhibition (mu opiate receptor): 38%

CC(C)c1nc(Cc2ccccc2)n2c1NC(=O)C2C(C)C (racemic) [Pool 110]
% Bound (kappa opiate receptor): 73.451%
% Inhibition (kappa opiate receptor): 26.549%
Mean (kappa opiate receptor): 1667.95
Minus NSB (kappa opiate receptor): 760.95
% Bound (mu opiate receptor): 54%
Mean (mu opiate receptor): 818.7
Minus NSB* (mu opiate receptor): 510.70
% Inhibition (mu opiate receptor): 46%

Cc1nc(Cc2ccc(O)cc2)c2n1C(C(C)C)C(=O)N2 (racemic) [Pool 64]
% Bound (kappa opiate receptor): 61.631%
% Inhibition (kappa opiate receptor): 38.369%
Mean (kappa opiate receptor): 1545.5
Minus NSB (kappa opiate receptor): 638.50
% Bound (mu opiate receptor): 42%
Mean (mu opiate receptor): 710.9
Minus NSB* (mu opiate receptor): 402.90
% Inhibition (mu opiate receptor): 58%

Cc1nc(C(C)C)c2n1C(C(C)C)C(=O)N2 (stereo not shown) [Pool 142]
% Bound (kappa opiate receptor): 79.324%
% Inhibition (kappa opiate receptor): 20.676%
Mean (kappa opiate receptor): 1728.8
Minus NSB (kappa opiate receptor): 821.80
% Bound (mu opiate receptor): 67%
Mean (mu opiate receptor): 946.05
Minus NSB* (mu opiate receptor): 638.05
% Inhibition (mu opiate receptor): 33%

CCCc1nc(C)n2c1NC(=O)C2C(C)C (racemic) [Pool 61]
% Bound (kappa opiate receptor): 50.845%
% Inhibition (kappa opiate receptor): 49.155%
Mean (kappa opiate receptor): 1433.75
Minus NSB (kappa opiate receptor): 526.75
% Bound (mu opiate receptor): 39%
Mean (mu opiate receptor): 677.65
Minus NSB* (mu opiate receptor): 369.65
% Inhibition (mu opiate receptor): 61%

Cc1ccc(Cc2nc(C(C)C)c3n2C(C(C)C)C(=O)N3)cc1 (racemic) [Pool 74]
% Bound (kappa opiate receptor): 48.287%
% Inhibition (kappa opiate receptor): 51.713%
Mean (kappa opiate receptor): 1407.25
Minus NSB (kappa opiate receptor): 500.25
% Bound (mu opiate receptor): 58%
Mean (mu opiate receptor): 858.65
Minus NSB* (mu opiate receptor): 550.65
% Inhibition (mu opiate receptor): 42%

CC(C)c1nc(CC(C)c2ccccc2)n2c1NC(=O)C2C(C)C (mixture of isomers) [Pool 69]
% Bound (kappa opiate receptor): 67.157%
% Inhibition (kappa opiate receptor): 32.843%
Mean (kappa opiate receptor): 1602.75
Minus NSB (kappa opiate receptor): 695.75
% Bound (mu opiate receptor): 62%
Mean (mu opiate receptor): 900.1
Minus NSB* (mu opiate receptor): 592.10
% Inhibition (mu opiate receptor): 38%
